The structures appear in SMILES notation.

Experiment [1] has as its system serrated tumors of DKO^IEC mice. Briefly: TGF-βR1-specific inhibition experiment in DKO^IEC mice. The class given is in vivo, mouse. The protocol: For CD8+ T cell depletion (FIG. 4), 10-week-old LKO^IEC mice were injected intraperitoneally with 200 μg of anti-CD8 antibody (clone 2.43) or control IgG twice a week for 5 weeks until they were sacrificed. For the TGF-βR1-specific inhibition experiment, 10-week-old DKO^IEC mice were treated twice a day with a dose of 10 mg of galunisertib (Tauriello et al., 2018) per os for 6 weeks until they were sacrificed. Control mice were treated with vehicle. For checkpoint immunotherapy, either 10-week-old or 13-week-old DKO^IEC mice were injected intraperitoneally with a dose of 10 mg/kg (body mass) of anti-PD-L1 antibody (clone 6E11) twice a week for 3 weeks until they were sacrificed. For the combination therapy of anti-PD-L1 antibody and TGF-βR1-specific inhibitor, 23-week-old DKO^IEC mice were treated twice a day with a dose of 10 mg of galunisertib per os and injected intraperitoneally with a dose of 10 mg/kg (body mass) of anti-PD-L1 antibody twice a week for 3 weeks until they were sacrificed. Anti-PD-L1 antibody was provided by de Sauvage FJ (Genentech).
Organs were isolated, rinsed in ice-cold PBS, fixed in 10% neutral buffered formalin overnight at 4° C., dehydrated, and embedded in paraffin. Sections (5 μm) were stained with hematoxylin and eosin (H&E). For immunohistochemistry, sections were deparaffinized, rehydrated, and then treated for antigen retrieval. After blocking in Protein Block Serum-Free solutions (DAKO), tissues were incubated with primary antibody overnight at 4° C. followed by incubation with biotinylated secondary antibody. Endogenous peroxidase was quenched in 3% H2O2 in water for 10 min at room temperature. Antibodies were visualized with avidin/biotin complex (e.g., Vectastain Elite; Vector Laboratories) using diaminobenzidine as the chromagen. For immunofluorescence, fresh frozen organs were embedded in Tissue-Tek OCT compound (e.g., Sakura) and section of 10 μm were fixed in methanol, washed with PBS and then incubated with the primary antibodies. Washed sections were incubated with Alexa-conjugated secondary antibodies (e.g., Life Technologies) and examined with a Zeiss LSM 710 NLO Confocal Microscope. In situ hybridization for murine Ereg was carried out using RNAscope Multiplex Fluorescent Assay kit (Advanced Cell Diagnostics) following manufacturer's instructions. The probe corresponding to CDS region of murine Ereg (Accession #: NM_007950.2, probe region: 116-1496; Advanced Cell Diagnostics; Cat #: 437981). Cell death was analyzed using the In-Situ Cell Death Detection kit, TMR red (Thermo) for TUNEL. Masson's Trichrome staining was carried out following manufacturer's instructions (Sigma HT15-1KT).
Flow cytometry experiments were performed using fresh small intestinal tissue and organoid preparations. For the analyses of small intestinal tissue, a half part of duodenum, jejunum, and ileum was used for quantitative flow cytometry analysis of immune cell population of lamina propria. Briefly, small intestines were rinsed in cold PBS, minced into small pieces, incubated in HBSS with EDTA (5 mM) and digested with collagenase (0.05 mg/ml) for 30 min at 37° C., followed by a discontinuous Percoll separation method (40 and 75%) to purify immune cells. The cells concentrated at the interface were collected and washed in cold PBS. Red blood cells were removed with lysing buffer (BD Pharm Lyse) and live cells were counted using Trypan blue and then saturated with mouse Fc Block (purified anti-mouse CD16/CD32; 1:50; clone 2.4G2; BD Pharmingen) 30 min at 4° C. before incubating with specific dyed antibodies.
Total RNA from mouse tissues and cultured organoids was extracted using the TRIZOL reagent (e.g., Invitrogen) and the RNeasy Mini Kit (e.g., Qiagen), followed by DNase treatment. […]

For the next experiment, the system named is ZKO organoids. Briefly: Interferon response of PKCζ-deficient (ZKO) small intestine organoids (3D culture). The experiment is classed as cell-based, mouse. As to conditions: 3 μM for 24 hours then drug-free culture, qRT-PCR. The protocol:
(§1) For generation of small intestine organoids, organoids were collected in ice-cold TrypLE solution (e.g., Life Technologies) to remove Matrigel, then pipetted 5 cycles and incubated 5 min at 37° C. to obtain single-cell suspension. Cells were washed twice in PBS 3% FBS and resuspended at room temperature with PBS with 100 μg/ml DNase I for 10 min before staining with anti-H-2Kb (clone AF6-88.5.5.3; eBioscience). For antigen presentation in MODE-K cells, cells were washed in PBS, trypsinized and wash with warm medium. Then, cells were resuspended and stained with anti-H-2Kk (clone 36-7-5; BioLegend) and anti-H-2Dk (clone 15-5-5; BD Pharmingen). Dead cells were excluded after 7-AAD staining. All flow cytometry experiments were performed on a BD LSRFortessa 14-colors analyzer at the Sanford Burnham Prebys Medical Discovery Institute Shared FACS Facility and flow cytometry data were analyzed using FlowJo software (Tree Star Inc.).
(§2) Intestinal epithelial cell (IEC) isolation was performed as described previously Llado et al., Repression of Intestinal Stem Cell Function and Tumorigenesis through Direct Phosphorylation of β-catenin and Yap by PKCζ. Cell Reports (2015) 10, 740-754, with some modification. […] Adenoma fragments were counted after isolation and a total of 250-500 fragments were mixed with 100 μl of growth factor reduced-Matrigel and plated in 12- or 24-well plates. […]
For orientation: Real-time PCR tracks product formation cycle by cycle.

In another experiment the test system is WT organoids. Briefly: Interferon response of WT small intestine organoids (3D culture). The class given is cell-based, mouse. Here is the method:
as §1, §2

[2] abbreviates: 10-week-old DKO^IEC mice, 10 mg per os twice a day for 6 weeks.
Setting [3] is: 10-week-old DKO^IEC mice, 6 weeks.

Consider `Cc1cccc(-c2nn3c(c2-c2ccnc4ccc(C(N)=O)cc24)CCC3)n1` [galunisertib], for which, in experiment [1] (setting [2]), the tumor load result is “did not reduce”, the tumor number result is given as “did not reduce” and the tumor size result is “did not reduce”. In experiment [1] (setting [3]), the “incidence of invasive cancer” value is “especially reduced” and the “progression of SSA/P to the adenocarcinoma stage” value is given as “suppressed”. The “proportion of PD-L1^+/CD45^+ cells infiltrating DKO^IEC tumors” value in experiment [1] (CD45/PD-L1 staining) is reported as “not affected”. Further, the collagen deposition entry in experiment [1] (Masson's trichrome staining of small intestinal tumors) is “inhibition”. Further, in experiment [1] (flow cytometry), the “proportion of Th17 cells in the tumors” value is given as “reduction”. In experiment [1] (flow cytometry, DKO^IEC tumors), the “proportion of CD8^+ T cells” value was “did not significantly change”, the “proportion of CD11b^+ myeloid cells” value was “did not significantly change” and the “proportion of Treg cells” value is recorded as “did not significantly change”. In addition, the “expression of TGF-β-responsive genes, such as Angpt12, Cdkn2b, Il11, and Ereg” value in experiment [1] (qRT-PCR) is reported as “reduced expression”. The “stromal phospho-SMAD2” value in experiment [1] (staining of small intestinal tumors) is “inhibition”.
For `Nc1ncn([C@H]2C[C@H](O)[C@@H](CO)O2)c(=O)n1` [5-AZA-CdR, 5-aza-2-deoxycytidine], the “expression of interferon-responsive genes Irf7, Oas1a, Isg15, and Cxcl10” value was “severely abrogated” in the experiment with ZKO organoids and “robustly induced” in the experiment with WT organoids (3 μM for 24 hours then drug-free culture, qRT-PCR). Also, the “MHC class I long-chain H-2K^b on the surface” value in the experiment on WT organoids (flow cytometry) was “upregulated”.

These data come from patent US20220177561A1, “Models and Methods Useful for the Treatment of Serrated Colorectal Cancer” (Sanford Burnham Prebys Medical Discovery Institute, priority 2018, published 2022).
